Our source for the Kd and Activity values is ChEMBL document CHEMBL2169864, “Binding Model for the Interaction of Anticancer Arylsulfonamides with the p300 Transcription Cofactor” (ACS Med Chem Lett, 2012).

Activity calls are given as the source filed them. The calls are words filed in the database; no cut-off is given here.

For experiment [1], the target named is T1, Histone acetyltransferase p300 (Homo sapiens, UniProt Q09472). The experiment is described as follows: Binding affinity to recombinant P300 CH1 domain assessed as dissociation constant by surface plasmon resonance analysis. On the technique in general: SPR reads the build-up and loss of mass on a sensor chip optically.
T1 sequence (Q09472 whole entry, the tested form may be a part): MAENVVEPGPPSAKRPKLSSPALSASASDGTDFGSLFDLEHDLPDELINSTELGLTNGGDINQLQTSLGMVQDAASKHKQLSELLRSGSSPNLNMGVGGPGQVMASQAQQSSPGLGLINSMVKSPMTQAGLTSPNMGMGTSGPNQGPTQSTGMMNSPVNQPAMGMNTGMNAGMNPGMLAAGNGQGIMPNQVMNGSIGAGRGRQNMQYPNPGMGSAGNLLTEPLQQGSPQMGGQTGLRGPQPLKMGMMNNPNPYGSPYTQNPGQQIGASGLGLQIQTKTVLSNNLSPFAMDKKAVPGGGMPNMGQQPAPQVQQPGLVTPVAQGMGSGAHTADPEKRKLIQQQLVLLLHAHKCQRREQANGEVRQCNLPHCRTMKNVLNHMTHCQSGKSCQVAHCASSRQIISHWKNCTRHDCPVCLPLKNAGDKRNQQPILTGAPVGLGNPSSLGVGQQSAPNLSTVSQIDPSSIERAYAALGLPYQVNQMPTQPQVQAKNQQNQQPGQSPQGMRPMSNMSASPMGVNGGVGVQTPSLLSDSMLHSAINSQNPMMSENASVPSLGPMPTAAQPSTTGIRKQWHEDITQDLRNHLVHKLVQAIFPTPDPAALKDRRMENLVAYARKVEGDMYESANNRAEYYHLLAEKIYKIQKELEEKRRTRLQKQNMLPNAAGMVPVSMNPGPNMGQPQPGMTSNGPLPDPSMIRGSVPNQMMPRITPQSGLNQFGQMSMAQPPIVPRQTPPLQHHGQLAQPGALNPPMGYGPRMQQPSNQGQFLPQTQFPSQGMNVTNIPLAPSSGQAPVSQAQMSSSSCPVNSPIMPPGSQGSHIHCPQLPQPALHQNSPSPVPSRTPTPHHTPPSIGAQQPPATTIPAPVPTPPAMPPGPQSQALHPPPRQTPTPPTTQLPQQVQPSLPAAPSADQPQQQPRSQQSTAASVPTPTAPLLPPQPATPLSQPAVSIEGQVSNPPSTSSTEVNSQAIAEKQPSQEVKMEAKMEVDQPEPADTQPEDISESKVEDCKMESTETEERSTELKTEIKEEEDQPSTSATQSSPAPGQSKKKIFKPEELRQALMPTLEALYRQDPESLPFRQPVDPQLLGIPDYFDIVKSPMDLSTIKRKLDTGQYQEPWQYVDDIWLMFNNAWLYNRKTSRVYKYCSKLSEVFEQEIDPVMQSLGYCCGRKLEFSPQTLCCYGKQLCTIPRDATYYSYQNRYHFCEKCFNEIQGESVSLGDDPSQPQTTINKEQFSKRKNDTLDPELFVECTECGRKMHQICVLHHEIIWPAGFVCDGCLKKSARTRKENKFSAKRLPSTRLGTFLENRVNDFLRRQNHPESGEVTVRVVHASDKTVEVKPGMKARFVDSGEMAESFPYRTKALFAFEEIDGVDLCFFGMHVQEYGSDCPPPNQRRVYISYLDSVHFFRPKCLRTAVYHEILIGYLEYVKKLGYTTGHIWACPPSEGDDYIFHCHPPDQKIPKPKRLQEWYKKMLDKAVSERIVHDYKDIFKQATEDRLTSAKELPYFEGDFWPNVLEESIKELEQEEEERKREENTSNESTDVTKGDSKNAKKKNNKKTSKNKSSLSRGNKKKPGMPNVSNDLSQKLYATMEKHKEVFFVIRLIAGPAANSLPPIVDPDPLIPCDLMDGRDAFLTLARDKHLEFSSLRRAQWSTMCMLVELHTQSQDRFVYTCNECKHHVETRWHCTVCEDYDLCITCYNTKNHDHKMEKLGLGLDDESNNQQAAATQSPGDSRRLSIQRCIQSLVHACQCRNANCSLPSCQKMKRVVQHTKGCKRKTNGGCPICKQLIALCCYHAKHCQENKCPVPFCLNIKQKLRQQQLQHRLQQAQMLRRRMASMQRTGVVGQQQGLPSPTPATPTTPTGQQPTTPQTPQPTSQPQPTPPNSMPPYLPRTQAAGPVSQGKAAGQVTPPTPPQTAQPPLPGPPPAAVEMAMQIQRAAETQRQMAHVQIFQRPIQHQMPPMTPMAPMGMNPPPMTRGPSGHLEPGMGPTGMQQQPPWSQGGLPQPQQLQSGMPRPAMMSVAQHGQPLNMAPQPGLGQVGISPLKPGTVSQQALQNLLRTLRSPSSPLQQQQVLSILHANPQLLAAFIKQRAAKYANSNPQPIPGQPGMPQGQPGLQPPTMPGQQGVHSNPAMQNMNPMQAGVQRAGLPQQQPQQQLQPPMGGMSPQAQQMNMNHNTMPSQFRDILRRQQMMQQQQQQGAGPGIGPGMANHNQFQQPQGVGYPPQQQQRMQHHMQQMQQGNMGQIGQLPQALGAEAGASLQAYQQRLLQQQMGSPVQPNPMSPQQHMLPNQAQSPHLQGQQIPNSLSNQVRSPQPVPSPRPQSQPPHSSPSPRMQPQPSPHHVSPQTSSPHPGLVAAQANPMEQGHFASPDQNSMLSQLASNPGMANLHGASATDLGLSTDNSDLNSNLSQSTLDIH
In experiment [2] the target is T1, Histone acetyltransferase p300. Nature of the experiment: Binding affinity to P300 in human LN229 cell nuclear extracts by Western blot analysis. (In general: Immunoblotting shows a protein as a band on a membrane.)
Experiment [3] has the same target. Nature of the experiment: Binding affinity to GST-tagged recombinant P300 CH1 domain expressed in Escherichia coli BL21 by Coomassie staining-based gel electrophoresis. To be noted: tested as the 14C-labelled form.
Experiment [4] addresses Hypoxia-inducible factor 1-alpha (Homo sapiens) (UniProt Q16665). The experiment is described as follows: Binding affinity to HIF1alpha in human LN229 cell nuclear extracts by Western blot analysis.

Chain of Hypoxia-inducible factor 1-alpha (Homo sapiens) (Q16665 whole entry, looked up): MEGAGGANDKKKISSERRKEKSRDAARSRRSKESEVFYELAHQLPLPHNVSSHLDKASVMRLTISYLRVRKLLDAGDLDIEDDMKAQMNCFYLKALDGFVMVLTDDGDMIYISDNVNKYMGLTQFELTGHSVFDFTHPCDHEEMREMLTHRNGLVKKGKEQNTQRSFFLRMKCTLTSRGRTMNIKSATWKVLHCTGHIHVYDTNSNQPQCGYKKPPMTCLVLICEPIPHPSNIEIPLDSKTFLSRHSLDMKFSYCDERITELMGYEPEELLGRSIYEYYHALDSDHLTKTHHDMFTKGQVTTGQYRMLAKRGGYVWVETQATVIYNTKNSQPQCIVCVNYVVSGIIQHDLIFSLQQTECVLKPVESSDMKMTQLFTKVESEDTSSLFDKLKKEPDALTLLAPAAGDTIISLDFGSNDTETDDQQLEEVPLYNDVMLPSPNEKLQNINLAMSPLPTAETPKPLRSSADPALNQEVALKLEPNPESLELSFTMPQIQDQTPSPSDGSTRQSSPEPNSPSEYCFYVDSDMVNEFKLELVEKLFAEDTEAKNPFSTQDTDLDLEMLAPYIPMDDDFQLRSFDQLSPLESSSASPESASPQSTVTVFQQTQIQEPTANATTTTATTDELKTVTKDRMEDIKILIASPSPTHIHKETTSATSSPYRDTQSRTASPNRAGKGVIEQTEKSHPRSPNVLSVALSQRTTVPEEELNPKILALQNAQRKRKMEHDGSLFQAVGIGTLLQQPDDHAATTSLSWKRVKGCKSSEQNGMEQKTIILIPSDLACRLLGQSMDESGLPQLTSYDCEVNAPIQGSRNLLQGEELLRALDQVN

A word on the Kd: it is the concentration at which binding is half-saturated. `COc1ccc(S(=O)(=O)N(Cc2ccc3c(c2)C=CC(C)(C)O3)c2ccccc2)cc1OC`: in experiment [1], the Kd turned out to be 0.345 µM. Further, the result in experiment [2] and in experiment [3] was Active. For the same molecule, the outcome in experiment [4] was inactive.
